The structures appear in SMILES notation. “And” between values parts separate entries of the source, which are not always exact repeats. Equal entries are not always repeated.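 In this assay, cells in 96-well plates receive the compound at five concentrations for 48 hours. Endpoints are linearly interpolated between the surrounding concentrations. GI50 = concentration required for 50% inhibition of growth. At the TGI there is no net growth.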 Some results are limits rather than exact numbers.

Drawing on PubChem BioAssay (NCI), this text covers TGI and GI50 for ten compounds.

Among the test systems are DU-145 prostate; HCC-2998 colon; HOP-92 NSCLC; MDA-MB-231 breast; MDA-MB-435; NCI-H23 lung; SF-268 CNS; SK-OV-3 ovarian; SN12C renal; SW-620 colon.
Experiment in all cases: inhibition of tumour cell growth, NCI panel, 48 h

In the case of `C=C(Cl)COC(=O)Nc1cccc(Cl)c1`, the TGI was > 100 µM in the experiment with DU-145 prostate; > 100 µM in the experiment with HCC-2998 colon; 64.9 µM with HOP-92 NSCLC; > 100 µM in the experiment with MDA-MB-231 breast; > 100 µM in the experiment on MDA-MB-435; 90.2 µM with NCI-H23 lung. Besides, the TGI with SF-268 CNS, with SK-OV-3 ovarian, in the experiment on SN12C renal and with SW-620 colon was > 100 µM in each case.

Consider `C=C1C[C@@H]2C/C=C/C(=O)C/C(C)=C\C=C\C(=O)O[C@H](C=O)C/C(C)=C/[C@H](C1)O2`, for which the GI50 is 0.455 µM in the experiment with DU-145 prostate; 0.77 µM in the experiment with HCC-2998 colon; 0.367 µM with HOP-92 NSCLC; 3.69 µM in the experiment with MDA-MB-231 breast; 0.316 µM in the experiment on MDA-MB-435; 5.16 µM with NCI-H23 lung. In addition, the GI50 with SF-268 CNS is 1.39 µM; in the experiment on SK-OV-3 ovarian it was 5.36 µM; with SN12C renal, 0.697 µM; with SW-620 colon, 0.449 µM. Further, the TGI in the experiment with DU-145 prostate was 2.32 µM; in the experiment with HCC-2998 colon, 3.32 µM; with HOP-92 NSCLC, 2.34 µM; with MDA-MB-231 breast, 13.1 µM; in the experiment with MDA-MB-435 it was > 100 µM; in the experiment on NCI-H23 lung, 23.1 µM. Further, the TGI with SF-268 CNS is 19.6 µM; in the experiment with SK-OV-3 ovarian, > 100 µM; with SN12C renal, 20.4 µM; in the experiment with SW-620 colon it was 15.7 µM.

Take `COc1ccccc1C1=C2C(=O)N(C)C(c3ccccc3OC)=C2C(=O)N1C`: the TGI in the experiment on DU-145 prostate, in the experiment on HCC-2998 colon, in the experiment on HOP-92 NSCLC, with MDA-MB-231 breast, with MDA-MB-435 and with NCI-H23 lung was > 100 µM throughout. The TGI in the experiment on SF-268 CNS, with SK-OV-3 ovarian, in the experiment on SN12C renal and with SW-620 colon was > 100 µM each time.

For the compound `CCCCCCCCCNCCCCCCCCC`, the GI50 in the experiment with DU-145 prostate is 1.85 µM; in the experiment with HCC-2998 colon, 1.69 µM; in the experiment on HOP-92 NSCLC, 1.47 µM; in the experiment with MDA-MB-231 breast, 1.56 µM; in the experiment on MDA-MB-435, 1.85 µM; in the experiment on NCI-H23 lung, 1.72 µM. In addition, the GI50 was 2.29 µM with SF-268 CNS, 2.04 µM with SK-OV-3 ovarian, 1.59 µM in the experiment on SN12C renal and 1.76 µM in the experiment with SW-620 colon. Besides, the TGI with DU-145 prostate came to 3.74 µM; in the experiment with HCC-2998 colon, 3.24 µM; in the experiment on HOP-92 NSCLC it was 3.03 µM; with MDA-MB-231 breast, 3.21 µM; with MDA-MB-435, 3.58 µM; in the experiment with NCI-H23 lung, 3.39 µM. The TGI is 5.28 µM in the experiment on SF-268 CNS, 3.83 µM with SK-OV-3 ovarian, 3.25 µM in the experiment on SN12C renal and 3.48 µM in the experiment with SW-620 colon.

Regarding `OCC(O)C(O)C(O)C1SC(c2ccccc2)=NN1c1ccccc1` (stereo not drawn), the TGI with DU-145 prostate is > 100 µM; in the experiment with HCC-2998 colon, > 100 µM; with HOP-92 NSCLC, 63.4 µM; in the experiment with MDA-MB-231 breast, > 91.6 µM; with MDA-MB-435 it was > 100 µM; in the experiment with NCI-H23 lung, > 95.7 µM. The TGI in the experiment on SF-268 CNS is > 97.3 µM; in the experiment with SK-OV-3 ovarian, 76.9 µM; in the experiment with SN12C renal, > 100 µM; with SW-620 colon it was > 100 µM.

Turning to `O=C(/C=C/C=C/c1ccccc1)CCc1ccccc1`, the TGI in the experiment on DU-145 prostate, in the experiment on HCC-2998 colon, in the experiment on HOP-92 NSCLC, with MDA-MB-231 breast, with MDA-MB-435 and in the experiment on NCI-H23 lung was > 100 µM each time. Also, the TGI in the experiment on SF-268 CNS, in the experiment with SK-OV-3 ovarian, in the experiment on SN12C renal and in the experiment with SW-620 colon was > 100 µM throughout.

Consider `Nc1ccc(C(=O)c2ccc(N)c(Br)c2)cc1Br`, for which the GI50 was 0.334 µM in the experiment on DU-145 prostate; 0.381 µM with HCC-2998 colon; 0.299 µM in the experiment with HOP-92 NSCLC; 0.772 µM in the experiment on MDA-MB-231 breast; 0.207 µM in the experiment on MDA-MB-435; 1.16 µM in the experiment on NCI-H23 lung. Moreover, the GI50 in the experiment with SF-268 CNS is 0.747 µM; in the experiment on SK-OV-3 ovarian, 0.425 µM; in the experiment on SN12C renal, 0.903 µM; with SW-620 colon it was 0.379 µM. For the same compound, the TGI is 1.58 µM with DU-145 prostate; 4.65 µM with HCC-2998 colon; 5.9 µM in the experiment on HOP-92 NSCLC; > 47.1 µM in the experiment on MDA-MB-231 breast; 0.49 µM with MDA-MB-435; > 100 µM in the experiment on NCI-H23 lung. Besides, the TGI in the experiment on SF-268 CNS is > 53.1 µM; in the experiment with SK-OV-3 ovarian, 32.6 µM; in the experiment on SN12C renal, > 100 µM; with SW-620 colon, > 100 µM.

For `CCOC(=O)CCCn1c(SC)nc2cc(-c3ccco3)[nH]c2c1=O`, the GI50 in the experiment on DU-145 prostate was > 100 µM; in the experiment on HCC-2998 colon it was > 100 µM; in the experiment on HOP-92 NSCLC, 25.6 µM; in the experiment with MDA-MB-231 breast, 28 µM; in the experiment with MDA-MB-435, > 100 µM; in the experiment on NCI-H23 lung it was 90.5 µM. The GI50 with SF-268 CNS was 52.7 µM; with SK-OV-3 ovarian, 5.74 µM; in the experiment with SN12C renal, 81.8 µM; in the experiment on SW-620 colon it was > 100 µM. In addition, the TGI is > 100 µM in the experiment with DU-145 prostate; > 100 µM in the experiment with HCC-2998 colon; 65.7 µM with HOP-92 NSCLC; 81.2 µM with MDA-MB-231 breast; > 100 µM with MDA-MB-435; > 100 µM in the experiment with NCI-H23 lung. The TGI in the experiment with SF-268 CNS is > 100 µM; with SK-OV-3 ovarian, 32.5 µM; with SN12C renal it was > 100 µM; in the experiment on SW-620 colon it was > 100 µM.

As for `c1ccc(C(=NNc2nc3ccccc3o2)c2ccccn2)nc1`, the GI50 in the experiment on DU-145 prostate is 0.0775 µM; with HCC-2998 colon it was 0.0972 µM; in the experiment with HOP-92 NSCLC it was 0.0751 µM; with MDA-MB-231 breast, 0.0693 µM; in the experiment on MDA-MB-435, 0.273 µM; in the experiment on NCI-H23 lung it was 0.0617 µM. In addition, the GI50 in the experiment with SF-268 CNS was 0.0551 µM; in the experiment on SK-OV-3 ovarian, 0.0518 µM; in the experiment with SN12C renal, 0.0856 µM; with SW-620 colon it was 0.0524 µM. Also, the TGI in the experiment with DU-145 prostate is 19.4 µM and > 34.3 µM; in the experiment on HCC-2998 colon it was 18.4 µM and 1.96 µM; in the experiment on MDA-MB-231 breast, 21.6 µM and 17.7 µM; in the experiment on MDA-MB-435 it was 34.6 µM and 28.3 µM; with NCI-H23 lung it was 26.6 µM and 27.9 µM; with SF-268 CNS, 22.9 µM and 2.38 µM. Besides, the TGI in the experiment with SN12C renal is > 71.7 µM; in the experiment on SW-620 colon it was 39.8 µM and 19.1 µM.

Regarding `Cc1ccccc1C(=O)C#Cc1cn(C2CC(O)C(CO)O2)c(=O)[nH]c1=O` (stereo not drawn), the TGI in the experiment on DU-145 prostate, in the experiment on HCC-2998 colon, in the experiment with HOP-92 NSCLC, in the experiment with MDA-MB-231 breast, in the experiment on MDA-MB-435 and in the experiment with NCI-H23 lung was > 100 µM throughout. For the same compound, the TGI in the experiment with SF-268 CNS, with SK-OV-3 ovarian, in the experiment on SN12C renal and with SW-620 colon was > 100 µM in each case.
